In ChEMBL document CHEMBL4680269, “N-benzylpiperidinol derivatives as novel USP7 inhibitors: Structure-activity relationships and X-ray crystallographic studies” (Eur J Med Chem, 2020):
Active and inactive are the calls of the source. The calls are words filed in the database; no cut-off is given here.

The compounds below were run against T1, Ubiquitin carboxyl-terminal hydrolase 7 (Homo sapiens, UniProt Q93009) (assay: Inhibition of recombinant human N-terminal His6-tagged full length USP7 expressed in baculovirus infected Sf21 cells using monoubiquitinated ubiquitin-rhodamine as substrate incubated for 30 mins followed by Ub-Rho addition and measured after 2 hrs by spectrophotometry). Settings: not given.
Target sequence in this assay (Q93009 whole entry): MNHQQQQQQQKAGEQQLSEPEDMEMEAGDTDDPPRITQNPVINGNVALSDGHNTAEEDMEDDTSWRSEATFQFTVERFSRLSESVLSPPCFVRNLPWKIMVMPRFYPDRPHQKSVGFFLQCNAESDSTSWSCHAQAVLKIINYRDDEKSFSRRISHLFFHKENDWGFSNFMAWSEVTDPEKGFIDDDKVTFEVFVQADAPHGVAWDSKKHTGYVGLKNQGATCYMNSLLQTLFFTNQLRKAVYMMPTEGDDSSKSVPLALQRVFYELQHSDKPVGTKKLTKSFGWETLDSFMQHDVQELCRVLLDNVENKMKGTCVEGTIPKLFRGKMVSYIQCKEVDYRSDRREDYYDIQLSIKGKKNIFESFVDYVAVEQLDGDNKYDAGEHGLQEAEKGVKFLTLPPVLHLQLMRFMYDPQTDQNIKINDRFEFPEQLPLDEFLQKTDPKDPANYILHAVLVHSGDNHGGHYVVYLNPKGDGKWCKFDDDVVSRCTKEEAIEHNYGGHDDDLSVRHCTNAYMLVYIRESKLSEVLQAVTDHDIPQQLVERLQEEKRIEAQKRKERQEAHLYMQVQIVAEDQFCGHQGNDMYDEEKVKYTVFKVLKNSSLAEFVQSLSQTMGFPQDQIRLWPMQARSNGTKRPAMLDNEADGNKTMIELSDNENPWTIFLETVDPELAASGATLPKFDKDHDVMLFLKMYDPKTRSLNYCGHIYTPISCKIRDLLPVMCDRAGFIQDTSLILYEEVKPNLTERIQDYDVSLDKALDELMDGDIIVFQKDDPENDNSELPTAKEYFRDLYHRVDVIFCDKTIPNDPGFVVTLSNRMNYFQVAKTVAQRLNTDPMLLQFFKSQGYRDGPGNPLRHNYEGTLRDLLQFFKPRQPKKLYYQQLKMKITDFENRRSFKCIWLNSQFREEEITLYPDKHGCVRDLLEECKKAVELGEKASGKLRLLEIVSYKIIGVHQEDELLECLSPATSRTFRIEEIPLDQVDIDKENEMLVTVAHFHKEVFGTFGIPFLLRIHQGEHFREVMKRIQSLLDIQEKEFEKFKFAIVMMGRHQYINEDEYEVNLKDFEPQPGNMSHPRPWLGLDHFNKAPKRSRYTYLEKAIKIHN
Compound O=c1c2cnn(-c3ccc(F)cc3)c2ncn1CC1(O)CCN(Cc2ccc(Br)cc2Cl)CC1 has an IC50 of 1.9 µM. For O=c1c2cnn(-c3ccc(F)cc3)c2ncn1CC1(O)CCN(Cc2ccccc2Cl)CC1, the IC50 was 3.4 µM. In the case of COC(=O)c1ccc(CN2CCC(O)(Cn3cnc4c(Br)n(C)nc4c3=O)CC2)c(Cl)c1, the IC50 is reported as 0.157 µM. O=c1c2cnn(-c3ccc(F)cc3)c2ncn1CC1(O)CCN(Cc2ccccc2F)CC1 gave an IC50 of 9.8 µM. With COC(=O)c1ccc(CN2CCC(O)(Cn3cnc4c(cnn4-c4ccc(F)cc4)c3=O)CC2)c(F)c1 the IC50 was 0.8 µM. In the case of O=c1c2cnn(-c3ccc(F)cc3)c2ncn1CC1(O)CCN(Cc2ccc(Cl)cc2)CC1, the IC50 is reported as 8 µM. Compound N#Cc1ccccc1CN1CCC(O)(Cn2cnc3c(cnn3-c3ccc(F)cc3)c2=O)CC1 has an IC50 of 8.1 µM. In the case of COC(=O)c1ccc(CN2CCC(O)(Cn3cnc4c(-c5ccc(CNC(C)=O)cc5)n(C)nc4c3=O)CC2)c(Cl)c1, the IC50 is reported as 0.121 µM. Compound COC(=O)c1ccc(CN2CCC(O)(Cn3cnc4c(cnn4-c4ccc(F)cc4)c3=O)CC2)c(Cl)c1 has an IC50 of 0.8 µM. For O=c1c2cnn(-c3ccc(F)cc3)c2ncn1CC1(O)CCN(Cc2ccccc2Br)CC1, the IC50 was 3.1 µM. For O=c1c2cnn(-c3ccc(F)cc3)c2ncn1CC1(O)CCN(Cc2ccc(Br)cc2)CC1, the IC50 was 6.7 µM. O=c1c2cnn(-c3ccc(F)cc3)c2ncn1CC1(O)CCN(Cc2ccc([N+](=O)[O-])cc2)CC1 gave an IC50 of 9 µM. COC(=O)c1ccc(CN2CCC(O)(Cn3cnc4c(cnn4-c4ccc(F)cc4)c3=O)CC2)cc1 gave an IC50 of 4.5 µM. For COC(=O)c1ccc(CN2CCC(O)(Cn3cnc4c(-c5ccc(CNC(=O)OC(C)(C)C)cc5)n(C)nc4c3=O)CC2)c(Cl)c1, the IC50 was 0.209 µM. In the case of O=c1c2cnn(-c3ccc(F)cc3)c2ncn1CC1(O)CCN(Cc2ccc(Cl)cc2Cl)CC1, the IC50 is reported as 3.3 µM. For COC(=O)c1ccc(CN2CCC(O)(Cn3cnc4c(cnn4-c4ccc(F)cc4)c3=O)CC2)c(Br)c1, the IC50 was 0.9 µM. For N#Cc1cc(Cl)ccc1CN1CCC(O)(Cn2cnc3c(cnn3-c3ccc(F)cc3)c2=O)CC1, the IC50 was 11.4 µM. For O=c1c2cnn(-c3ccc(F)cc3)c2ncn1CC1(O)CCN(Cc2ccc(F)cc2Cl)CC1, the IC50 was 1.6 µM.

Each compound was assayed against T1, Ubiquitin carboxyl-terminal hydrolase 7 (assay: Inhibition of recombinant human N-terminal His6-tagged full length USP7 expressed in baculovirus infected Sf21 cells at 10 uM using monoubiquitinated ubiquitin-rhodamine as substrate incubated for 30 mins followed by Ub-Rho addition and measured after 2 hrs by spectrophotometry relative to control). Settings: time 2.5 hrs.
Target sequence in this assay (Q93009 whole entry, looked up): as the sequence (Q93009 whole entry) above
For O=c1c2cnn(-c3ccc(F)cc3)c2ncn1CC1(O)CCN(c2ccccn2)CC1, the inhibition was “inactive”. For CCOC(=O)c1csc(N2CCC(O)(Cn3cnc4c(cnn4-c4ccc(F)cc4)c3=O)CC2)n1, the inhibition was “inactive”. For O=c1c2cnn(-c3ccc(F)cc3)c2ncn1CC1(O)CCN(c2ncccn2)CC1, the inhibition was “inactive”. In the case of O=c1c2cnn(-c3ccc(F)cc3)c2ncn1CC1(O)CCN(c2cccc(C(F)(F)F)n2)CC1, the inhibition is reported as “inactive”. O=c1c2cnn(-c3ccc(F)cc3)c2ncn1CC1(O)CCN(c2ncccc2Cl)CC1 showed an inhibition of 32%. With O=c1c2cnn(-c3ccc(F)cc3)c2ncn1CC1(O)CCN(c2nccs2)CC1 the inhibition was “inactive”. For O=c1c2cnn(-c3ccc(F)cc3)c2ncn1CC1(O)CCN(c2ncccc2F)CC1, the inhibition was “inactive”. For N#Cc1cccnc1N1CCC(O)(Cn2cnc3c(cnn3-c3ccc(F)cc3)c2=O)CC1, the inhibition was “inactive”. For O=Cc1cccc(N2CCC(O)(Cn3cnc4c(cnn4-c4ccc(F)cc4)c3=O)CC2)n1, the inhibition was “inactive”. With O=c1c2cnn(-c3ccc(F)cc3)c2ncn1CC1(O)CCN(c2ccc3ccccc3n2)CC1 the inhibition was “inactive”. For O=Cc1cccnc1N1CCC(O)(Cn2cnc3c(cnn3-c3ccc(F)cc3)c2=O)CC1, the inhibition was “inactive”. O=c1c2cnn(-c3ccc(F)cc3)c2ncn1CC1(O)CCN(c2ncccc2Br)CC1 gave an inhibition of 32%. With O=c1c2cnn(-c3ccc(F)cc3)c2ncn1CC1(O)CCN(c2ncccc2I)CC1 the inhibition was 32%.
